Measured values taken from US12303517B1, “Oral testosterone therapy” (Lipocine, Inc., priority 2016, dated 2025).

What was measured:
[1] = Single fixed dose dosing regimen examples for safety and efficacy (serum T Cmax / Cavg criteria), with food; assay type: in vivo, human
[2] = Randomized double-blind placebo-controlled dose escalating clinical study of oral T13 in hypogonadal males (serum testosterone pharmacokinetics); assay type: in vivo, human; settings: for T Cavg (±SD) / T Cmax (±SD) / % with Cavg/day > 300 ng/dL / % with Cmax/dose < 1,500 ng/dL: hypogonadal males; for % with Cavg/day > 300 ng/dL / % with Cmax/dose < 1,500 ng/dL: serum T
Protocol: Dosage Form Example B of Composition 4 with dosing regimen (Regimen #. 1-9) of dosing category BID-equal dose with daily dose range 500-1250 mg of T13 in this invention were used for a clinic study of Testosterone Therapy for hypogonadal males.
This Clinical Study is a Randomized Double-Blind, Placebo-Controlled Dose Escalating Study of the Safety, Efficacy, Tolerability, and Pharmacokinetics of Testosterone Therapy in Hypogonadal Males. This clinic study was a single and multiple, ascending-dose study that was designed to determine the optimal starting, titration (if appropriate), or single fixed dose for safety and efficacy targeted by US FDA. The study also verified the time for testosterone levels to reach steady state and identified a suitable single fixed dose dosing regimen that satisfies unmet need for safety and efficacy for oral TRT.
This study was carried out with conditions of a single-center, randomized, double-blind, placebo-controlled, ascending multiple-dose, and serial-group in adult hypogonadal male subjects. The objectives of this study were: • a) To assess the safety, efficacy, and tolerability of escalating single and multiple oral doses of T13 dosage forms in hypogonadal males • b) To determine the pharmacokinetics (PK) of testosterone (T), DHT, TT, DHTT, and estradiol (E2) after single and multiple oral doses of TT dosage forms in hypogonadal males • c) To identify single fixed dose dosing regimen satisfying USFDA target, not needing to titrate for restoring average serum T levels in hypogonadal males to the normal T range.
The dosing regimen for this clinic study ranged from 500 mg daily dose to 1250 mg daily dose with […]. Observed pharmacokinetic parameters (T, DHT, T13, DHTT, and E2) after single and multiple oral doses of T13 dosage forms in the patients were recorded by each daily dose in the report. […] The overall analyzed results of this clinic study were plotted according to % of patients for safety (Cmax <1,500 ng/dL) and efficacy (Cavg >300 ng/dL) with a variety of dosing regimen. Its results are shown in the below table.

[3] = Regimen 12, BID-equal dose (AM/PM) 375/375 mg T13, with food with at least 10 g of fat
[4] = Regimen 13, BID-equal dose (AM/PM) 400/400 mg T13, with food with at least 10 g of fat
[5] = Regimen 14, BID-equal dose (AM/PM) 450/450 mg T13, with food with at least 10 g of fat
[6] = Regimen 15, BID-equal dose (AM/PM) 500/500 mg T13, with food with at least 10 g of fat
[7] = Regimen 16, BID-equal dose (AM/PM) 550/550 mg T13, with food with at least 10 g of fat
[8] = Regimen 17, BID-equal dose (AM/PM) 575/575 mg T13, with food with at least 10 g of fat
[9] = Regimen 18, BID-equal dose (AM/PM) 625/625 mg T13, with food with at least 10 g of fat
[10] = 750 mg T13 QD dose at steady state (14 days)
[11] = daily dose 500 mg T13 (equivalent T dose 298 mg)
[12] = daily dose 700 mg T13 (equivalent T dose 417 mg)
[13] = daily dose 750 mg T13 QD (equivalent T dose 446 mg)
[14] = daily dose 800 mg T13 (equivalent T dose 476 mg)
[15] = daily dose 900 mg T13 (equivalent T dose 536 mg)
[16] = daily dose 1000 mg T13 QD (equivalent T dose 595 mg)
[17] = daily dose 1100 mg T13 (equivalent T dose 655 mg)
[18] = daily dose 1150 mg T13 (equivalent T dose 685 mg)
[19] = daily dose 1250 mg T13 (equivalent T dose 744 mg)

**Q.** What does the source list for `CCCCCCCCCCCCC(=O)O[C@H]1CC[C@H]2[C@@H]3CCC4=CC(=O)CC[C@]4(C)[C@H]3CC[C@]12C` [T13, testosterone tridecanoate]?
**A.** Cavg > 300 ng/dL ≥75% patients [1, 3]: Yes; Cavg > 300 ng/dL ≥80% patients [1, 3]: No; Cmax > 1500 ng/dL <15% patients [1, 3]: Yes; Cmax > 1500 ng/dL <20% patients [1, 3]: Yes; Cmax > 1800 ng/dL <5% patients [1, 3]: Yes; Cmax > 1800 ng/dL <10% patients [1, 3]: Yes; Cmax > 2500 ng/dL <2% patients [1, 3]: Yes; Cmax > 2500 ng/dL none of patients [1, 3]: Yes; Cavg > 300 ng/dL ≥75% patients [1, 4]: Yes; Cavg > 300 ng/dL ≥80% patients [1, 4]: Yes; Cmax > 1500 ng/dL <15% patients [1, 4]: Yes; Cmax > 1500 ng/dL <20% patients [1, 4]: Yes; Cmax > 1800 ng/dL <5% patients [1, 4]: Yes; Cmax > 1800 ng/dL <10% patients [1, 4]: Yes; Cmax > 2500 ng/dL <2% patients [1, 4]: Yes; Cmax > 2500 ng/dL none of patients [1, 4]: Yes; Cavg > 300 ng/dL ≥75% patients [1, 5]: Yes; Cavg > 300 ng/dL ≥80% patients [1, 5]: Yes; Cmax > 1500 ng/dL <15% patients [1, 5]: Yes; Cmax > 1500 ng/dL <20% patients [1, 5]: Yes; Cmax > 1800 ng/dL <5% patients [1, 5]: Yes; Cmax > 1800 ng/dL <10% patients [1, 5]: Yes; Cmax > 2500 ng/dL <2% patients [1, 5]: Yes; Cmax > 2500 ng/dL none of patients [1, 5]: Yes; Cavg > 300 ng/dL ≥75% patients [1, 6]: Yes; Cavg > 300 ng/dL ≥80% patients [1, 6]: Yes; Cmax > 1500 ng/dL <15% patients [1, 6]: Yes; Cmax > 1500 ng/dL <20% patients [1, 6]: Yes; Cmax > 1800 ng/dL <5% patients [1, 6]: Yes; Cmax > 1800 ng/dL <10% patients [1, 6]: Yes; Cmax > 2500 ng/dL <2% patients [1, 6]: Yes; Cmax > 2500 ng/dL none of patients [1, 6]: Yes; Cavg > 300 ng/dL ≥75% patients [1, 7]: Yes; Cavg > 300 ng/dL ≥80% patients [1, 7]: Yes; Cmax > 1500 ng/dL <15% patients [1, 7]: Yes; Cmax > 1500 ng/dL <20% patients [1, 7]: Yes; Cmax > 1800 ng/dL <5% patients [1, 7]: Yes; Cmax > 1800 ng/dL <10% patients [1, 7]: Yes; Cmax > 2500 ng/dL <2% patients [1, 7]: Yes; Cmax > 2500 ng/dL none of patients [1, 7]: Yes; Cavg > 300 ng/dL ≥75% patients [1, 8]: Yes; Cavg > 300 ng/dL ≥80% patients [1, 8]: Yes; Cmax > 1500 ng/dL <15% patients [1, 8]: Yes; Cmax > 1500 ng/dL <20% patients [1, 8]: Yes; Cmax > 1800 ng/dL <5% patients [1, 8]: Yes; Cmax > 1800 ng/dL <10% patients [1, 8]: Yes; Cmax > 2500 ng/dL <2% patients [1, 8]: Yes; Cmax > 2500 ng/dL none of patients [1, 8]: Yes; Cavg > 300 ng/dL ≥75% patients [1, 9]: Yes; Cavg > 300 ng/dL ≥80% patients [1, 9]: Yes; Cmax > 1500 ng/dL <15% patients [1, 9]: Yes; Cmax > 1500 ng/dL <20% patients [1, 9]: Yes; Cmax > 1800 ng/dL <5% patients [1, 9]: Yes; Cmax > 1800 ng/dL <10% patients [1, 9]: Yes; Cmax > 2500 ng/dL <2% patients [1, 9]: Yes; Cmax > 2500 ng/dL none of patients [1, 9]: Yes; T Cavg (±SD) [2, 10]: 352 (±41) ng/dL; T Cmax (±SD) [2, 10]: 822 (±254) ng/dL; T Cavg (±SD) ([2]; 1000 mg QD dose at steady state (14 days)): 405 (±148) ng/dL; T Cmax (±SD) ([2]; 1000 mg T13 QD dose at steady state (14 days)): 930 (±326) ng/dL; % with Cavg/day > 300 ng/dL [2, 11]: 36.3%; % with Cmax/dose < 1,500 ng/dL [2, 11]: 100.0%; % with Cavg/day > 300 ng/dL [2, 12]: 71.5%; % with Cmax/dose < 1,500 ng/dL [2, 12]: 100.0%; % with Cavg/day > 300 ng/dL [2, 13]: 76.2%; % with Cmax/dose < 1,500 ng/dL [2, 13]: 99.5%; % with Cavg/day > 300 ng/dL [2, 14]: 80.0%; % with Cmax/dose < 1,500 ng/dL [2, 14]: 98.8%; % with Cavg/day > 300 ng/dL [2, 15]: 85.0%; % with Cmax/dose < 1,500 ng/dL [2, 15]: 96.7%; % with Cavg/day > 300 ng/dL [2, 16]: 88.1%; % with Cmax/dose < 1,500 ng/dL [2, 16]: 92.8%; % with Cavg/day > 300 ng/dL [2, 17]: 90.0%; % with Cmax/dose < 1,500 ng/dL [2, 17]: 85.6%; % with Cavg/day > 300 ng/dL [2, 18]: 90.7%; % with Cmax/dose < 1,500 ng/dL [2, 18]: 80.0%; % with Cavg/day > 300 ng/dL [2, 19]: 91.6%; % with Cmax/dose < 1,500 ng/dL [2, 19]: 66.8%; US FDA T level target for safety and efficacy for testosterone replacement therapy ([2]; single fixed dose, no titration, 750 mg to 1100 mg daily dose of T13): satisfies US FDA T level target for safety and efficacy
